Data taken from ChEMBL document CHEMBL1127057, “Synthesis, optical resolution, absolute configuration, and preliminary pharmacology of (+)- and (-)-cis-2,3,3a,4,5,9b-hexahydro-1-methyl-1H- pyrrolo-[3,2-h]isoquinoline, a structural analog of nicotine” (J Med Chem, 1993).

Key:
Mus musculus [1] = species on record: Mus musculus; assay: Inhibition of spontaneous activity in mice; type: functional
Mus musculus [2] = species on record: Mus musculus; assay: Inhibition of tail-flick response (antinociception) in mice; type: functional
[3] = Binding affinity was evaluated towards nicotine receptor in mouse brain; type: tissue-based
Mus musculus [4] = species on record: Mus musculus; assay: Equilibrium dissociation constant (Kd) was determined

c1cc2c(cn1)C1NCCC1CC2 (racemic) showed an ED50 (Mus musculus [1]) of 24.8 µmol/kg, an ED50 (Mus musculus [2]) of 25.7 µmol/kg and a Ki [3] of 167 nM.

For CN1CCC2CCc3ccncc3C21 (single isomer, unassigned; (+)), the ED50 (Mus musculus [1]) was 7.13 µmol/kg and the ED50 (Mus musculus [2]) was 7.45 µmol/kg.

With CN1CCC2CCc3ccncc3C21 (single isomer, unassigned; (-)) the ED50 (Mus musculus [1]) was 61.7 µmol/kg and the Ki [3] was 605 nM.

For CN1CCC[C@H]1c1cccnc1 [NICOTINE], the ED50 (Mus musculus [1]) was 4.44 µmol/kg, the ED50 (Mus musculus [2]) was 4.81 µmol/kg and the Kd (Mus musculus [4]) was 1.41 nM.
